From paper PMC4527083 (European journal of pharmacology, 2014)
pIC50: −log10 of the molar value.

Biological target: HERG potassium channel (human ether-a-go-go related gene) (Homo sapiens, UniProt Q12809)
Experiment: cell-based

HERG potassium channel (human ether-a-go-go related gene), sequence (Q12809 whole entry): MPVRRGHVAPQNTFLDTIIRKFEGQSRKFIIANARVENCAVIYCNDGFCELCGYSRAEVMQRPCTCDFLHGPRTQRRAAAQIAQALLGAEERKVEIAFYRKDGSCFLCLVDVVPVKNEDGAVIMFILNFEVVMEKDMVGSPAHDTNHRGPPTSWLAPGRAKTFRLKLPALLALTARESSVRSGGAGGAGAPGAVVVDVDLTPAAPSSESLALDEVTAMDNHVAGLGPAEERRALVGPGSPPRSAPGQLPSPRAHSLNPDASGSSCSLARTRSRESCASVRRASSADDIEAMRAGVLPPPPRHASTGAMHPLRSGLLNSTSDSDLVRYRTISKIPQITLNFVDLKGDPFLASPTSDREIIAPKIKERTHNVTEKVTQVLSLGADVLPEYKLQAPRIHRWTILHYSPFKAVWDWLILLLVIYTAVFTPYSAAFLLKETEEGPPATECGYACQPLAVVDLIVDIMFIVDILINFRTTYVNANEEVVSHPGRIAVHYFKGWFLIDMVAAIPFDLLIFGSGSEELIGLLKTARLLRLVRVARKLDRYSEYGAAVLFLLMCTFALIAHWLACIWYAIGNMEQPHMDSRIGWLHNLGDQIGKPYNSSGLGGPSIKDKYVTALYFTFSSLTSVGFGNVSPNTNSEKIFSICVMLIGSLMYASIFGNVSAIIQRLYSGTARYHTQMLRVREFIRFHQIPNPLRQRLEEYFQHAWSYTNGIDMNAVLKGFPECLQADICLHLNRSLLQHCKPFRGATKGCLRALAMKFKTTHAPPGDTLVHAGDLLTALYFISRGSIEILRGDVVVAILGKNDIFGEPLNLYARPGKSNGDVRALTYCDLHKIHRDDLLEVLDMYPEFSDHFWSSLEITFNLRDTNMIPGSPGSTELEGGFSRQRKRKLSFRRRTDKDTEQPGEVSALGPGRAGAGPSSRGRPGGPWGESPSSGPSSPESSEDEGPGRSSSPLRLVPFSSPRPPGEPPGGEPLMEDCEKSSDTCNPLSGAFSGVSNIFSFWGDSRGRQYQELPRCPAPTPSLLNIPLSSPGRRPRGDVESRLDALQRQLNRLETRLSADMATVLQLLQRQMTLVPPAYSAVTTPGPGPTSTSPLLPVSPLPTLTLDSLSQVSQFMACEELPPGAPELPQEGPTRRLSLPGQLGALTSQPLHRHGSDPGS

Compound: CCCCCCCCCCCC[N+](C)(C)CCOc1ccccc1 [DB, domiphen bromide]
- pIC50: 8.05
